Experimental data as given in PubChem BioAssay AID449764 (Southern Research Specialized Biocontainment Screening …, 2010).

Test system: Mycobacterium tuberculosis H37Rv growth inhibition, no glycerol
Assay: Mycobacterium tuberculosis H37Rv growth inhibition, no glycerol, confirmatory dose response (AID 449764);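 also: growth read after 7 days of incubation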
Settings: for IC90: measured here: IC90 growth inhibition

Structure (SMILES) | IC50 [µM] | IC90 [µM]
O=C(CCC(=O)OCc1ccc(C(=O)Oc2ccc(Cl)cc2)cc1)Nc1ccccc1 | 80.2 | > 100
O=C(Nc1ccccc1)C1=C[C@@H](C2CCCCC2)C[C@@H](OCc2ccc(CO)cc2)O1 | 36 | 47.6
O=C(/C=C/c1ncc(C(F)(F)F)cc1Cl)OCc1ccccc1 | 90.5 | > 100
COc1ccc2nc(N=NC3=C(O)CC(C)(C)CC3=O)sc2c1 | 13.5 | 17.2
CCN1CSC(=S)N(Cc2ccccc2)C1 | 32.5 | 60.7
CCOC(=O)CSc1snnc1-c1ccccc1 | 29.4 | > 100
OC(CN1CCN(c2ccccn2)CC1)Cn1c2ccccc2c2ccccc21 (stereo unspecified) | 42 | 55.1
CCOc1cc2c(cc1OCC)-n1cccc1C(c1ccc(C(C)C)cc1)NC2 (stereo unspecified) | 20.2 | 28.7
Cc1nonc1NC(=O)CSc1ccc(-c2ccccc2)nn1 | 41.2 | 58.9
CN(CCCNC(=O)c1cc2c(Cl)nc3ccccc3c2s1)Cc1ccccc1 | 55.7 | 91.1
Cc1cccc(N(C(=O)c2nsc(Cl)c2Cl)C(C(=O)NC2CCCC2)c2ccc(O)cc2)c1C (stereo unspecified) | 30.8 | 41
Cc1ccc(C(=O)N2N=C(c3ccc(NS(C)(=O)=O)cc3)CC2c2cccs2)cc1 (stereo unspecified) | 23.6 | 37.5
CC1CC2=C(CC1/C=N/NC(N)=S)C(C)(C)CCC2 (stereo unspecified) | 18.3 | 26.8
COc1cnc(-c2ccccn2)nc1Oc1ccc(Cl)c2ccccc12 | 0.67 | 1.38
CCN(CCNCC(O)COc1ccccc1C(C)C)c1cccc(C)c1 (stereo unspecified) | 22.8 | 26
COc1ccc(NC(=O)CN(C)CC(=O)Nc2sc3c(c2C(N)=O)CCC3)cc1 | 82.4 | > 100
Cc1nc(N)nc(N)c1CCCc1ccc(Cl)c(Cl)c1 | 87.4 | > 100
O=C(NCC1CC1)c1cc([N+](=O)[O-])cc([N+](=O)[O-])c1 | 6.57 | 11.2
COc1ccccc1NC(=O)C(C)OC(=O)/C=C/c1ccc2ccccc2n1 (stereo unspecified) | 6.99 | 13.1
CC1CCC(C(C)C)C(OC(=O)Cn2c(-c3ccc(F)cc3)[n+](C)c3ccccc32)C1 (stereo unspecified) | 10.8 | 14.4
CC1CCCC/C1=N\NC(=S)NCCc1ccccc1 (stereo unspecified) | 42.5 | 47.9
O=[N+]([O-])c1ncccc1Oc1nc(-c2cccnc2)nc2ccccc12 | 0.82 | 3.87
C=CCn1cccc(/C=C/C(=O)c2ccc(C(C)(C)C)cc2)c1=S | 68 | 86.8

Structure (SMILES) | IC50 [µM] | IC90 [µM]
CCCCN(C)C(=O)Cc1c(OC)ccc2cc(Br)ccc12 | 24.4 | 33.5
CCOC(=O)Cn1c(C)c(Br)c(=O)c2cccc(C)c21 | 23 | 26.6
COc1ccc(C(=O)c2c(C(F)(F)F)oc3c2C(=O)c2ccccc2C3=O)cc1OC | 16.7 | 22.1
COc1c(C)cc(C(=O)C2CCCN(Cc3ccccn3)C2)cc1C (stereo unspecified) | 20.2 | 29.7
CN(Cc1ccco1)c1ncnc2ccc(-c3ccc4c(ccn4C)c3)cc12 | 40.9 | 59.4
CSCCOC(=O)COc1ccc(/C=N/NC(=O)c2c(Cl)cnn2C)cc1 | 19.6 | 37.7
O=C(NC(=S)Nc1cccc2cccnc12)c1ccccc1 | 56.9 | > 100
Cc1nn(-c2ccccc2)nc1C(=O)c1c(C)[nH]n(-c2ccccc2)c1=O | 17.5 | 23.2
CCCCCCCCSc1nnc(CSc2nc3nc(C)cc(C)n3n2)o1 | 2.63 | 6.27
C=C1c2c(Cl)ccc(O)c2C(O)=C2C(=O)[C@]3(O)C(O)=C(C(N)=O)C(=O)[C@@H](N(C)C)[C@@H]3[C@@H](O)C12 (stereo partly specified) | 4.52 | 7.01
CC1(C)CC(=O)C2=C(C1)NC(Nc1nc3ccccc3o1)=NC2c1ccccn1 (stereo unspecified) | 2.99 | 6.27
CCOC(=O)C(/C=C(\C#N)C(=O)OCC)=C(/N)N1CCN(c2ccc(Cl)cc2)CC1 | 11.9 | > 25
CC1(O)CC(c2ccc(Cl)cc2)=NN1C(=O)c1ccc([N+](=O)[O-])cc1 (stereo unspecified) | 7.79 | > 100
COc1ccc(C2=NN(C(=O)COC(=O)c3ccc(S(C)(=O)=O)c([N+](=O)[O-])c3)C(c3ccco3)C2)cc1 (stereo unspecified) | 18.3 | 26.9
CCc1nc(N2CCN(C(C)=O)CC2)c2c3c(sc2n1)CC(C(C)(C)C)CC3 (stereo unspecified) | 17.9 | 21.5
O=C(NCC1CCN(c2ccc(S(=O)(=O)N3CCOCC3)cc2)CC1)c1ccc(Cl)cc1 | 40.6 | 57
O=C(CCCCCNc1nc(=S)[nH]c2ccccc12)N1CCN(c2ccccn2)CC1 | 90.2 | > 100
O=c1cc(/C=C/c2ccccc2)oc2ccccc12 | 97.6 | > 100
Cn1nnnc1Sc1ncnc2scc(-c3cc4ccccc4o3)c12 | 5.11 | 12.1
CC(C)(C)c1cc(-c2nc(N)nc(N)n2)c(O)c(C(C)(C)C)c1 | 90.4 | 96
CNc1nc(SCc2ccccc2Cl)nc2c1CCCC2 | 0.45 | 1.21
COc1cc(/C=C/C(=O)c2c(O)n(CCc3ccccc3)c(=O)[nH]c2=O)ccc1O | 14.3 | 21.8
CCN(CC)CCNC(=O)c1ccc(NC(=O)c2cn(-c3ccccc3)nc2-c2cccs2)cc1 | 24.4 | 27.6

Structure (SMILES) | IC50 [µM] | IC90 [µM]
Cc1cc(C=C2C(=O)NC(=S)NC2=O)c(C)n1C1CCCC1 | 34.9 | 73.9
CCNc1nc(NCC)nc(N/N=C/c2ccc([N+](=O)[O-])o2)n1 | 1.3 | 1.7
Cc1ccc2c(c1)c1c3n2CCN=C3CCC1 | 10.5 | 16
O=C(OCn1nnc2ccccc2c1=O)C1CCCCC1 | 5.88 | 6.69
CCCCCCc1cc2cc(C(=O)NCc3ccccc3)c(=N)oc2cc1O | 5.67 | 6.45
CCCc1cc(NC(=O)CCl)n(-c2ccccc2)n1 | 2.93 | 3.32
Cc1ccc(Cn2ccsc2=NC(=O)CCl)cc1 | 2.86 | 6.73
N#Cc1c([N+](=O)[O-])cc([N+](=O)[O-])cc1S(=O)(=O)Cc1ccccc1 | 22.6 | 25.9
CCC1=C(OC(=O)N(CC)CC)N2C(=O)OC(=NCCc3c[nH]c4ccccc34)[C@]2(Cc2ccccc2)[C@H]2C1=CC[C@H]1C(=O)NC(=O)[C@H]12 | 30.6 | 45.7
S=C(NCc1ccc(Cl)cc1)NC12CC3CC(CC(C3)C1)C2 | 3.83 | 28.1
COc1ccc(N=c2ssnc2Cl)cc1 | 90.6 | > 100
O=[N+]([O-])c1cc([N+](=O)[O-])c2cc3ccccc3nc2c1 | < 0.2 | 0.64
c1ccc(-c2ccccc2OCCCCn2ccnc2)cc1 | 23.3 | 26.9
CCC(C)NC(=O)c1c(N)n(/N=C/c2ccccn2)c2nc3ccccc3nc12 (stereo unspecified) | 13.7 | 22.4
O=C(OCC(=O)N1CCCc2ccccc21)c1ccc(S(=O)(=O)C(F)F)cc1 | 37.9 | 49.2
CC(Oc1cc2oc(=O)c3c(c2cc1Cl)CCCC3)C(=O)NCc1ccccn1 (stereo unspecified) |  | > 100
CN(C(=O)c1cccc(Nc2ccc(-c3ccc4c(c3)OCCO4)nn2)c1)C1CCCCC1 | 69.2 | > 100
CCCCCCCCn1c2c(c(=N)c3c1CCC3)CCCC2 | 22.6 | 25.8
O=C1c2ccccc2CC1Sc1nnc(-c2ccncc2)o1 (stereo unspecified) |  | > 100
CC(/C=N/n1c(C2CCCCC2)n[nH]c1=S)=C\c1ccccc1 | 80.8 | 90.3
Cc1ccnc(NC(=O)COc2ccc3c(c2)CCC3)c1 | 85.7 | > 100
Nc1c(C(=O)O)cnc2c(-c3ccc(Cl)cc3)cnn12 | 64 | 99.8
COc1ccc(-c2csc(NC(C)c3nc4cc(Cl)c(N5CCCCC5)cc4n3CCCO)n2)cc1 (stereo unspecified) | 23 | 26.2

Structure (SMILES) | IC50 [µM] | IC90 [µM]
O=C(N/N=C/c1ccc([N+](=O)[O-])o1)c1sc2ccccc2c1Cl | 5.69 | 8.72
CCc1ccc(NCc2ccc(OC)c(Cn3ccnc3)c2)cc1 | 21.5 | 23.7
Cc1c([N+](=O)[O-])cnc(Sc2ccccc2)c1[N+](=O)[O-] | 5.8 | 9.94
Cc1ccc(CNc2ccc3c(c2)ncn3C(C)(C)C)cc1 | 19.9 | 28.8
C(=N\Nc1nc(-c2ccccc2)cs1)/c1ccncc1 | 62.7 | 79.9
Cc1nc(-c2ccccc2)sc1C(=O)/C=C/c1ccccc1 | 12.4 | 13.6
CC(=O)c1ccc(-n2cc(-c3ccc(C(C)(C)C)cc3)[n+]3c2SCCC3)cc1 | 20.3 | 26.9
Cc1ccc(C(=O)O/N=C\c2ccc(N3CCCCC3)c([N+](=O)[O-])c2)cc1 | 53.4 | > 100
C/C(=N\NC(=S)NCC(C)(C)C)c1cc(F)cc(F)c1O | 9.33 | 37.1
CCOC(=O)c1cnc(Nc2nc3ccccc3o2)nc1CSC(=S)N(CC)CC | 49.3 | 56.6
COc1ccccc1C(=O)NC(=S)/C=C1/N(C)c2ccccc2C1(C)C | 30.8 | 46.8
COCCCn1c(SCc2cccc(OC)c2)nc2cc(OC)c(OC)cc2c1=N | 33.9 | 44.6
COc1cc(C2c3cc4c(cc3C(OC3OC5COC(c6cccs6)OC5C(O)C3O)C3COC(=O)C23)OCO4)cc(OC)c1O (stereo unspecified) | 27.6 | 35.4
CCc1cc(/C(Cc2ccccn2)=N\Nc2ccccc2)c(O)cc1O | 85.7 | 94.6
C/C(=N\Nc1nc2c(s1)CCCC2)c1ccccc1 | 30.6 | 47.2
Cc1ccc(C)c(C2C(=O)c3ccccc3C2=O)c1 | 16.5 | 46.8
CCNc1nc(Nc2ccc(C)c(Cl)c2)c2cnn(C)c2n1 | 70 | > 100
Nc1c(-c2ccccn2)cnn1-c1nc(-c2ccc(F)cc2)cs1 | 59.7 | > 100
COc1ccc2c3n(nc2c1)CCN=C3c1cc(Cl)c(N)c(Cl)c1 | 94.1 | 97.7
O=C(/C=C\c1cccs1)N1CCN(Cc2ccc3c(c2)OCO3)CC1 | 0.6 | 1.45
